# Reference: US10196391B2 (Hoffmann-La Roche Inc., priority 2014, dated 2019)
# Tested on: HBsAg
# Assay: HBsAg assay (CLIA) in HepG2.2.15 cells
# Assay type: cell-based, HBV
# Details: HepG2.2.15 cells, secreted HBsAg, CLIA; read-out: IC50 (HBsAg assay)
# Description: HepG2.2.15 cells (Acs et al. Proc Natl Acad Sci USA, 84, (1987), 4641-4), a constitutively HBV-expressing cell line were cultured in DMEM+Glutamax-I medium (Invitrogen, Carlsbad, Calif., USA), supplemented with 10% fetal bovine serum (Invitrogen) and G418 (Invitrogen) at a final concentration of 200 mg/L and maintained in 5% CO2 at 37° C.
# HepG2.2.15 cells were seeded in duplicate into white, 96-well plates at 1.5×10^4 cells/well. The cells were treated with a three-fold serial dilution series of the compounds in DMSO. The final DMSO concentration in all wells was 1% and DMSO was used as no drug control.
# The HBsAg chemiluminescence immunoassay (CLIA) kit (Autobio Diagnostics Co., Zhengzhou, China, Catalog number: CL0310-2) was used to measure the levels of secreted HBV antigens semi-quantitatively. For the detection 50 μL/well culture supernatant was used and HBsAg was quantified using HBsAg chemiluminescence immunoassay (CLIA) kit (Autobio Diagnostics Co., Zhengzhou, China, Catalog number: CL0310-2), 50 μL of the supernatant was transferred to the CLIA assay plate and 50 μL of enzyme conjugate reagent was added into each well. The plates were sealed and gently agitated for 1 hour at room temperature. The supernatant-enzyme-mixture was discarded and wells were washed 6 times with 300 μL of PBS. The residual liquid was removed by plating the CLIA plate […] on absorbent tissue paper. 25 μL of substrates A and B were added to each well. Luminance was measured using a luminometer (Mithras LB 940 Multimode Microplate Reader) after 10 minutes incubation. Dose-response curves were generated and the IC50 value was extrapolated by using the E-WorkBook Suite (ID Business Solutions Ltd., Guildford, UK). The IC50 was defined as the compound concentration (or conditioned media log dilution) at which HBsAg secretion was reduced by 50% compared to the no drug control.
# The compounds according to formula I were tested for their capacity to inhibit HBsAg as described herein.
row,Compound,IC50 [µM]
1,"2,3-difluoro-5-[2-(2-pyridyl)-7,8-dihydro-5H-pyrido[4,3-d]pyrimidin-6-yl]phenol [Example 18]",22

# Same assay, conditions: Hepatitis B virus, HepG2.2.15, read-out: IC50 (HBsAg assay)
row,Compound,IC50 [µM]
1,"CS(=O)(=O)c1ccc(N2CCc3nc(-c4ccccn4)ncc3C2)cc1 [Example 1, 6-(4-methylsulfonylphenyl)-2-(2-pyridyl)-7,8-dihydro-5H-pyrido[4,3-d]pyrimidine]",4.24
2,"CS(=O)(=O)c1ccc(N2CCc3nc(-c4ccc(F)cn4)ncc3C2)cc1 [Example 2, 2-(5-fluoro-2-pyridyl)-6-(4-methylsulfonylphenyl)-7,8-dihydro-5H-pyrido[4,3-d]pyrimidine]",10.2
3,"Cc1ccc(-c2ncc3c(n2)CCN(c2ccc(S(C)(=O)=O)cc2)C3)nc1 [Example 3, 2-(5-methyl-2-pyridyl)-6-(4-methylsulfonylphenyl)-7,8-dihydro-5H-pyrido[4,3-d]pyrimidine]",9.22
4,"Cc1cccnc1-c1ncc2c(n1)CCN(c1ccc(S(C)(=O)=O)cc1)C2 [Example 4, 2-(3-methyl-2-pyridyl)-6-(4-methylsulfonylphenyl)-7,8-dihydro-5H-pyrido[4,3-d]pyrimidine]",17.8
5,"COc1ccc(-c2ncc3c(n2)CCN(c2ccc(S(C)(=O)=O)cc2)C3)nc1 [Example 5, 2-(5-methoxy-2-pyridyl)-6-(4-methylsulfonylphenyl)-7,8-dihydro-5H-pyrido[4,3-d]pyrimidine]",42.1
6,"CS(=O)(=O)c1ccc(N2CCc3nc(-c4ccc(Cl)cn4)ncc3C2)cc1 [Example 6, 2-(5-chloro-2-pyridyl)-6-(4-methylsulfonylphenyl)-7,8-dihydro-5H-pyrido[4,3-d]pyrimidine]",18.8
7,"CCC1CN(c2ccc(S(C)(=O)=O)cc2)Cc2cnc(-c3ccccn3)nc21 (stereo not shown) [Example 7, 8-ethyl-6-(4-methylsulfonylphenyl)-2-(2-pyridyl)-7,8-dihydro-5H-pyrido[4,3-d]pyrimidine]",5.17
8,"CNS(=O)(=O)c1ccc(N2CCc3nc(-c4ccccn4)ncc3C2)cc1 [Example 8, N-methyl-4-[2-(2-pyridyl)-7,8-dihydro-5H-pyrido[4,3-d]pyrimidin-6-yl]benzenesulfonamide]",4.18
9,"CN(C)S(=O)(=O)c1ccc(N2CCc3nc(-c4ccccn4)ncc3C2)cc1 [Example 9, N,N-dimethyl-4-[2-(2-pyridyl)-7,8-dihydro-5H-pyrido[4,3-d]pyrimidin-6-yl]benzenesulfonamide]",16.9
10,"Fc1ccc(N2CCc3nc(-c4ccccn4)ncc3C2)cc1F [Example 10, 6-(3,4-difluorophenyl)-2-(2-pyridyl)-7,8-dihydro-5H-pyrido[4,3-d]pyrimidine]",2.69
11,"CS(=O)(=O)c1cccc(N2CCc3nc(-c4ccccn4)ncc3C2)c1 [Example 11, 6-(3-methylsulfonylphenyl)-2-(2-pyridyl)-7,8-dihydro-5H-pyrido[4,3-d]pyrimidine]",17.4
12,"O=S(=O)(c1ccc(N2CCc3nc(-c4ccccn4)ncc3C2)cc1)C(F)(F)F [Example 12, 2-(2-pyridyl)-6-[4-(trifluoromethylsulfonyl)phenyl]-7,8-dihydro-5H-pyrido[4,3-d]pyrimidine]",13.3
13,"Fc1cc(F)cc(N2CCc3nc(-c4ccccn4)ncc3C2)c1 [Example 13, 6-(3,5-difluorophenyl)-2-(2-pyridyl)-7,8-dihydro-5H-pyrido[4,3-d]pyrimidine]",1.04
14,"Fc1ccc(N2CCc3nc(-c4ccccn4)ncc3C2)c(F)c1 [Example 14, 6-(2,4-difluorophenyl)-2-(2-pyridyl)-7,8-dihydro-5H-pyrido[4,3-d]pyrimidine]",9.51
15,"COC(=O)c1ccc(N2CCc3nc(-c4ccccn4)ncc3C2)cc1F [Example 15, methyl 2-fluoro-4-[2-(2-pyridyl)-7,8-dihydro-5H-pyrido[4,3-d]pyrimidin-6-yl]benzoate]",9.23
16,"COC(=O)c1cc(Br)ccc1N1CCc2nc(-c3ccccn3)ncc2C1 [Example 16, methyl 5-bromo-2-[2-(2-pyridyl)-7,8-dihydro-5H-pyrido[4,3-d]pyrimidin-6-yl]benzoate]",13.7
17,"COc1cc(N2CCc3nc(-c4ccccn4)ncc3C2)cc(F)c1F [Example 17, 6-(3,4-difluoro-5-methoxy-phenyl)-2-(2-pyridyl)-7,8-dihydro-5H-pyrido[4,3-d]pyrimidine]",0.154
18,"COCCCOc1cc(N2CCc3nc(-c4ccccn4)ncc3C2)cc(F)c1F [Example 19, 6-[3,4-difluoro-5-(3-methoxypropoxy)phenyl]-2-(2-pyridyl)-7,8-dihydro-5H-pyrido[4,3-d]pyrimidine]",0.461

row,Compound,IC50 [µM]
1,"Fc1cc(N2CCc3nc(-c4ccccn4)ncc3C2)cc(OCc2ccccc2)c1F [Example 20, 6-(3-benzyloxy-4,5-difluoro-phenyl)-2-(2-pyridyl)-7,8-dihydro-5H-pyrido[4,3-d]pyrimidine]",2.84
2,"CCOc1cc(N2CCc3nc(-c4ccccn4)ncc3C2)cc(F)c1F [Example 21, 6-(3-ethoxy-4,5-difluoro-phenyl)-2-(2-pyridyl)-7,8-dihydro-5H-pyrido[4,3-d]pyrimidine]",0.321
3,"CCCOc1cc(N2CCc3nc(-c4ccccn4)ncc3C2)cc(F)c1F [Example 22, 6-(3,4-difluoro-5-propoxy-phenyl)-2-(2-pyridyl)-7,8-dihydro-5H-pyrido[4,3-d]pyrimidine]",0.75
4,"COCCOc1cc(N2CCc3nc(-c4ccccn4)ncc3C2)cc(F)c1F [Example 23, 6-[3,4-difluoro-5-(2-methoxyethoxy)phenyl]-2-(2-pyridyl)-7,8-dihydro-5H-pyrido[4,3-d]pyrimidine]",0.549
5,"COc1ccnc(-c2ncc3c(n2)CCN(c2cc(F)c(F)c(OC)c2)C3)c1 [Example 24, 6-(3,4-difluoro-5-methoxy-phenyl)-2-(4-methoxy-2-pyridyl)-7,8-dihydro-5H-pyrido[4,3-d]pyrimidine]",1.86
6,"COc1cccc(-c2ncc3c(n2)CCN(c2cc(F)c(F)c(OC)c2)C3)n1 [Example 25, 6-(3,4-difluoro-5-methoxy-phenyl)-2-(6-methoxy-2-pyridyl)-7,8-dihydro-5H-pyrido[4,3-d]pyrimidine]",16
7,"COc1cc(N2CCc3nc(-c4ncccn4)ncc3C2)cc(F)c1F [Example 26, 6-(3,4-difluoro-5-methoxy-phenyl)-2-pyrimidin-2-yl-7,8-dihydro-5H-pyrido[4,3-d]pyrimidine]",0.061
8,"COc1cc(F)c(F)cc1N1CCc2nc(-c3ccccn3)ncc2C1 [Example 27, 6-(4,5-difluoro-2-methoxy-phenyl)-2-(2-pyridyl)-7,8-dihydro-5H-pyrido[4,3-d]pyrimidine]",3.16
9,"COc1cc(N2CCc3nc(-c4cnccn4)ncc3C2)cc(F)c1F [Example 28, 6-(3,4-difluoro-5-methoxy-phenyl)-2-pyrazin-2-yl-7,8-dihydro-5H-pyrido[4,3-d]pyrimidine]",0.455
10,"COc1cc(N2CCc3nc(-c4ccncn4)ncc3C2)cc(F)c1F [Example 29, 6-(3,4-difluoro-5-methoxy-phenyl)-2-pyrimidin-4-yl-7,8-dihydro-5H-pyrido[4,3-d]pyrimidine]",4.16
11,"COc1c(N2CCc3nc(-c4ncccn4)ncc3C2)ccc(F)c1F [Example 30, 6-(3,4-difluoro-2-methoxy-phenyl)-2-pyrimidin-2-yl-7,8-dihydro-5H-pyrido[4,3-d]pyrimidine]",9.49
12,"CCOC(=O)c1ccc(N2CCc3nc(-c4ccccn4)ncc3C2)cc1 [Example 31, ethyl 4-[2-(2-pyridyl)-7,8-dihydro-5H-pyrido[4,3-d]pyrimidin-6-yl]benzoate]",16.9
13,"O=C(O)c1ccc(N2CCc3nc(-c4ccccn4)ncc3C2)cc1 [Example 32, 4-[2-(2-pyridyl)-7,8-dihydro-5H-pyrido[4,3-d]pyrimidin-6-yl]benzoic acid]",9.75
14,"O=[N+]([O-])c1ccccc1N1CCc2nc(-c3ccccn3)ncc2C1 [Example 33, 6-(2-nitrophenyl)-2-(2-pyridyl)-7,8-dihydro-5H-pyrido[4,3-d]pyrimidine]",0.39
15,"COc1cc([N+](=O)[O-])ccc1N1CCc2nc(-c3ccccn3)ncc2C1 [Example 34, 6-(2-methoxy-4-nitro-phenyl)-2-(2-pyridyl)-7,8-dihydro-5H-pyrido[4,3-d]pyrimidine]",0.874
16,"c1ccc(-c2ncc3c(n2)CCN(c2ccccn2)C3)nc1 [Example 35, 2,6-bis(2-pyridyl)-7,8-dihydro-5H-pyrido[4,3-d]pyrimidine]",8.21
17,"Clc1ccc(N2CCc3nc(-c4ccccn4)ncc3C2)nc1 [Example 36, 6-(5-chloro-2-pyridyl)-2-(2-pyridyl)-7,8-dihydro-5H-pyrido[4,3-d]pyrimidine]",1.54
18,"c1ccc(-c2ncc3c(n2)CCN(c2ncccn2)C3)nc1 [Example 37, 2-(2-pyridyl)-6-pyrimidin-2-yl-7,8-dihydro-5H-pyrido[4,3-d]pyrimidine]",4.45
